# From ChEMBL document CHEMBL4376804, “Review of Transient Receptor Potential Canonical (TRPC5) Channel Modulators and Diseases” (J Med Chem, 2019)
# How the values were obtained:
# AGS [1] = assay: Antitumor activity against human AGS cells xenografted in BALB/c mouse assessed as reduction in tumor growth at 200 mg/kg, ip BID administered for 2 consecutive weeks and measured every 3 days during compound dosing relative to control; format: functional; settings: 72 h, read-out: TGI
# MKN-45 = assay: Antiproliferative activity against human MKN45 cells by MTT assay; format: functional, cell-based
# AGS [2] = assay: Antiproliferative activity against human AGS cells by MTT assay; format: functional, cell-based
# AGS [3] = assay: Antitumor activity against human AGS cells xenografted in BALB/c mouse assessed as reduction in tumor growth at 100 mg/kg, ip BID administered for 2 consecutive weeks and measured every 3 days during compound dosing relative to control; format: functional; settings: 72 h, read-out: TGI
# TRPC6 [4] = assay: Inhibition of TRPC6 expressed in HEK293 cells coexpressing M5 receptor assessed as reduction in TRPC6-mediated calcium influx by fluorescence method
# [5] = biological target: T1, Short transient receptor potential channel 4 (Homo sapiens, UniProt Q9UBN4); assay: Inhibition of human TRPC4 expressed in HEK293 cells assessed as reduction in englerin A-induced calcium entry incubated for 30 mins by Fluo-4AM dye based fluorescence assay; format: cell-based
# T1 sequence (Q9UBN4 whole entry): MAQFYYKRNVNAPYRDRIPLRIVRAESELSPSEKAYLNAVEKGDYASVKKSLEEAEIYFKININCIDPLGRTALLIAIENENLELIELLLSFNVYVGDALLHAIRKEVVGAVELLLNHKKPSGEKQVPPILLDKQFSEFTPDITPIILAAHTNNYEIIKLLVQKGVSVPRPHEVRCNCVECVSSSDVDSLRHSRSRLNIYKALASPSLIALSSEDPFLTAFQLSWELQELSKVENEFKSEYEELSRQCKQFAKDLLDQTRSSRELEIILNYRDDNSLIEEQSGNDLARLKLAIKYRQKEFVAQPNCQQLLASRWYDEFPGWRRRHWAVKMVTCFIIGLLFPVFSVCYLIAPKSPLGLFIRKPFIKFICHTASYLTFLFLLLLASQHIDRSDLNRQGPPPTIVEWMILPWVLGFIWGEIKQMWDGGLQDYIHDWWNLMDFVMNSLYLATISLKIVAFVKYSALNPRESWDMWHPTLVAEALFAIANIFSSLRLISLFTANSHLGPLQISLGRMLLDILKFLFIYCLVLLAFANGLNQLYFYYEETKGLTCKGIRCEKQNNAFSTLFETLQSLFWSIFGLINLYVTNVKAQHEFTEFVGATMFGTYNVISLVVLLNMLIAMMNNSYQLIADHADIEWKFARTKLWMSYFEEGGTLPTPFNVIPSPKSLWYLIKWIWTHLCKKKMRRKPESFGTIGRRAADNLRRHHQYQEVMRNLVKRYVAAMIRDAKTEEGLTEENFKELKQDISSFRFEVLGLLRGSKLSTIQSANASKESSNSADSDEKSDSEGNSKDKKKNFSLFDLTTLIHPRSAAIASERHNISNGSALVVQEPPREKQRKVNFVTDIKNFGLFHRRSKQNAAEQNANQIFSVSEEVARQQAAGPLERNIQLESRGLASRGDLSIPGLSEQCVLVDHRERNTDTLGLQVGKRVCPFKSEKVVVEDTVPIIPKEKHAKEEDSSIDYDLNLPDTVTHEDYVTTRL
# TRPC1/TRPC5 = TRPC1/TRPC5 (Homo sapiens, UniProt P48995+Q9UL62); assay: Inhibition of human TRPC5/human TRPC1 expressed in HEK293 cells assessed as reduction in englerin A-induced calcium entry incubated for 30 mins by Fluo-4AM dye based fluorescence assay; format: cell-based
# Chain of TRPC1/TRPC5 (P48995 whole entry, one chain of several): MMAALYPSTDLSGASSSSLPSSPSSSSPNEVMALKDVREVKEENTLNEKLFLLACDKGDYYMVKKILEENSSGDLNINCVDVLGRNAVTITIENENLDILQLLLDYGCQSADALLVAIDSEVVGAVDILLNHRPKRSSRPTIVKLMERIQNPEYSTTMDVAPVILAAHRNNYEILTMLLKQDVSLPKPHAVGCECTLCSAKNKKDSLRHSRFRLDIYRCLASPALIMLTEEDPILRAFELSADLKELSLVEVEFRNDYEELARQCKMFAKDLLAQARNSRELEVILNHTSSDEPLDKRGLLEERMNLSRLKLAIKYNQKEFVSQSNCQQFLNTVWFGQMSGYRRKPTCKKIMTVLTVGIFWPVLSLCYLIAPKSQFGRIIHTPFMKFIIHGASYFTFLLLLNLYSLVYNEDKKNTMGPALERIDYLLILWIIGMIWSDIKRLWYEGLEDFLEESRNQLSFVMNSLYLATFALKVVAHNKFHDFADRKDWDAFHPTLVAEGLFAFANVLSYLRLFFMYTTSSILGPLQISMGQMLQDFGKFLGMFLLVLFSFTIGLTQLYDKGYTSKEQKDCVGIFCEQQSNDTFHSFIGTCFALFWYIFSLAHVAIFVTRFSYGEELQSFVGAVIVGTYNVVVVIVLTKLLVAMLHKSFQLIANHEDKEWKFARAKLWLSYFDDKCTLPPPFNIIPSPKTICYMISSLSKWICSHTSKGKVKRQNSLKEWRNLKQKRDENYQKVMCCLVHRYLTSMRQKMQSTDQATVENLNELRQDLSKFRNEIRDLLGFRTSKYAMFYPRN
# [6] = biological target: T1, Short transient receptor potential channel 4; assay: Inhibition of human TRPC4 expressed in HEK293 cells assessed as reduction in sphingosine-1-phosphate-induced current at -100 mV by patch clamp assay; format: cell-based
# [7] = biological target: T1, Short transient receptor potential channel 4; assay: Inhibition of human TRPC4 expressed in HEK293 cells assessed as reduction in sphingosine-1-phosphate-induced current at +100 mV by patch clamp assay; format: cell-based
# TRPC4/TRPC1 = TRPC4/TRPC1 (Homo sapiens, UniProt P48995+Q9UBN4); assay: Inhibition of human TRPC4/human TRPC1 expressed in HEK293 cells assessed as reduction in englerin A-induced calcium entry incubated for 30 mins by Fluo-4AM dye based fluorescence assay; format: cell-based
# Chain of TRPC4/TRPC1 (P48995 whole entry, one chain of several): as above
# [8] = biological target: T2, Short transient receptor potential channel 6 (Homo sapiens, UniProt Q9Y210); assay: Inhibition of human TRPC6 expressed in thapsigargin pretreated HEK293 cells assessed as reduction in GPCR-induced calcium entry by fluo-4/AM dye based assay; format: cell-based
# T2 sequence (Q9Y210 whole entry): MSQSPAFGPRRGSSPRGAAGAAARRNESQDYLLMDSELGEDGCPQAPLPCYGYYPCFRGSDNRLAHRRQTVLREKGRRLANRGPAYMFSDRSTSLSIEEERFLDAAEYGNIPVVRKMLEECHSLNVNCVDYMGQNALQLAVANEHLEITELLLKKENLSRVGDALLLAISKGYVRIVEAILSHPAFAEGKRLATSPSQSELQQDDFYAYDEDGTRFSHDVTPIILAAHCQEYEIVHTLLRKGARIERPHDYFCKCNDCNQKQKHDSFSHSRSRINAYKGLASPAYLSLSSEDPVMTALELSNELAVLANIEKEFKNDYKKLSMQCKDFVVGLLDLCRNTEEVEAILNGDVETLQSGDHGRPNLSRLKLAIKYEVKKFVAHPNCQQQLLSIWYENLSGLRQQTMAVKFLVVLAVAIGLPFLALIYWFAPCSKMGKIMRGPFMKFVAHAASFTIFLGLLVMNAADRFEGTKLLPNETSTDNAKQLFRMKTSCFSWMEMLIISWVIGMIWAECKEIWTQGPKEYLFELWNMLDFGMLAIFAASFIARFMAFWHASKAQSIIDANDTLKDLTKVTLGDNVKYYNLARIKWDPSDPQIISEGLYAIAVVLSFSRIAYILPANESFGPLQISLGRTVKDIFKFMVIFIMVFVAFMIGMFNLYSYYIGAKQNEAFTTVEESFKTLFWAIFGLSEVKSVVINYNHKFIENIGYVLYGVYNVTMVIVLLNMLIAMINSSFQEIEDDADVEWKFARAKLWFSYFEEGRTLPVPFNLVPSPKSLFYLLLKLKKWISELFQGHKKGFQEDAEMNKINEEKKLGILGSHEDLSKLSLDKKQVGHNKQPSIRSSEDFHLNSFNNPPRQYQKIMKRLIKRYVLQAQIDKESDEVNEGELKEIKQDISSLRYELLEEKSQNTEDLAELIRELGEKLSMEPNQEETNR
# ORAI1/STIM1 = ORAI1/STIM1 (Rattus norvegicus, UniProt P84903+Q5M848); assay: Inhibition of ORAI/STIM1 in thapsigargin treated rat RBL2H3 cells assessed as reduction in store-operated calcium entry after 5 mins by fura-2-AM dye based assay; format: cell-based
# Chain of ORAI1/STIM1 (P84903 whole entry): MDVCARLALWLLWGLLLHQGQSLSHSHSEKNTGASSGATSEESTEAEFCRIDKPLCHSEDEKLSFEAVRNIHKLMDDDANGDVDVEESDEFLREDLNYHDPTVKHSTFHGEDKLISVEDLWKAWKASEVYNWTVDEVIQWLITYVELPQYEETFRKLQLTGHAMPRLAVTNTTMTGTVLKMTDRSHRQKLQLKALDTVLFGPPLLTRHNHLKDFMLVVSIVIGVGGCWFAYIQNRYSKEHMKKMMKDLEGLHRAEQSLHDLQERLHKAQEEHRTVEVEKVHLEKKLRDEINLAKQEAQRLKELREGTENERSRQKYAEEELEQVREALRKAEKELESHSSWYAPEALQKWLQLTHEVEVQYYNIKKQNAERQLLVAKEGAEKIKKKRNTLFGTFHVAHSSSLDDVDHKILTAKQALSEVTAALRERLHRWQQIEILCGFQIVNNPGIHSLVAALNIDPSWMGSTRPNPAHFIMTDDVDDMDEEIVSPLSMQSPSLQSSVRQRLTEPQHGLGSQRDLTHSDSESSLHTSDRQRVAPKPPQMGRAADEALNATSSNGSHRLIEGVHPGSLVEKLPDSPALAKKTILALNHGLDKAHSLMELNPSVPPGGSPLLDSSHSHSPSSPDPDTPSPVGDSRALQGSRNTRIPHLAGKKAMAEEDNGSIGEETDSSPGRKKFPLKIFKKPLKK
# Chain of ORAI1/STIM1 (Q5M848 whole entry): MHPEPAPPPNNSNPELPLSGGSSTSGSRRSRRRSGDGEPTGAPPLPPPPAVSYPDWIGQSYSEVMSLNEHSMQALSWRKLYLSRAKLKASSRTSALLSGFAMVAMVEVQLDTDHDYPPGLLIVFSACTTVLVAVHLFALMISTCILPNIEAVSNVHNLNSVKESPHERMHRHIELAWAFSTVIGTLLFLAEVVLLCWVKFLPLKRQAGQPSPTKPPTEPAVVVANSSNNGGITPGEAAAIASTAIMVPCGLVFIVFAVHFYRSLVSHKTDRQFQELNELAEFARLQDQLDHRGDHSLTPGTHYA
# [9] = biological target: T3, Short transient receptor potential channel 3 (Homo sapiens, UniProt Q13507); assay: Inhibition of YFP-tagged TRPC3 (unknown origin) expressed in HEK293 cells assessed as reduction carbhocol-induced receptor operated Calcium influx after 5 mins by fura-2-AM dye based assay; format: cell-based
# T3 sequence (Q13507 whole entry): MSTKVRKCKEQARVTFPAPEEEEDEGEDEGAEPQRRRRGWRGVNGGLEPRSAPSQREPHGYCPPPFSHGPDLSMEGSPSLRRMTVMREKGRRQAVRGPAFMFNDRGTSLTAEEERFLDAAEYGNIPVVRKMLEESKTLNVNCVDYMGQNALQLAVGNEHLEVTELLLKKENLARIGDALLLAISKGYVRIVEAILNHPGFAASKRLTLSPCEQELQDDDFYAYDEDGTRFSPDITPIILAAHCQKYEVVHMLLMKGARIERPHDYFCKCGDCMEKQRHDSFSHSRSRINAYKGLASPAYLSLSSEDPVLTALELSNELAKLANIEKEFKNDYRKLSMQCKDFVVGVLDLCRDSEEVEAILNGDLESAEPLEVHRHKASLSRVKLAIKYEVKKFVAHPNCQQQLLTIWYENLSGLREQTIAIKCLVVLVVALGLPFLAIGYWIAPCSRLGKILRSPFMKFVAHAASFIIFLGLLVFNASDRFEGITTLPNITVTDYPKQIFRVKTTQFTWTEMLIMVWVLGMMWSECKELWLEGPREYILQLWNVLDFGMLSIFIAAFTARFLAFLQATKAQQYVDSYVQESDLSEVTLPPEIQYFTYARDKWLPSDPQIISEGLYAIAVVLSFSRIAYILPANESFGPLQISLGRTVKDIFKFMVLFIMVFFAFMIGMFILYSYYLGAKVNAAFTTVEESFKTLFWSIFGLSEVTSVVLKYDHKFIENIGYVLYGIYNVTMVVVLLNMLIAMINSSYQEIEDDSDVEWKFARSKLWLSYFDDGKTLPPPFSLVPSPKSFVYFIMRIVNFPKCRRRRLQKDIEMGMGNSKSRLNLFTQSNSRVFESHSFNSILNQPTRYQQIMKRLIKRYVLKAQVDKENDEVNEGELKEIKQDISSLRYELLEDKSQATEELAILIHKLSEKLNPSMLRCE
# [10] = Inhibition of ORAI (unknown origin) assessed as reduction in Ang2-induced NFAT translocation; set-up: species or system Homo sapiens
# [11] = biological target: T3, Short transient receptor potential channel 3; assay: Inhibition of TRPC3 (unknown origin)
# TRPC6 [12] = assay: Agonist activity at TRPC6 expressed in HEK293 cells coexpressing M5 receptor assessed as induction of TRPC6-mediated calcium influx by fluorescence method
# [13] = biological target: T4, Short transient receptor potential channel 5 (Homo sapiens, UniProt Q9UL62); assay: Inhibition of TRPC5 (unknown origin)
# T4 sequence (Q9UL62 whole entry): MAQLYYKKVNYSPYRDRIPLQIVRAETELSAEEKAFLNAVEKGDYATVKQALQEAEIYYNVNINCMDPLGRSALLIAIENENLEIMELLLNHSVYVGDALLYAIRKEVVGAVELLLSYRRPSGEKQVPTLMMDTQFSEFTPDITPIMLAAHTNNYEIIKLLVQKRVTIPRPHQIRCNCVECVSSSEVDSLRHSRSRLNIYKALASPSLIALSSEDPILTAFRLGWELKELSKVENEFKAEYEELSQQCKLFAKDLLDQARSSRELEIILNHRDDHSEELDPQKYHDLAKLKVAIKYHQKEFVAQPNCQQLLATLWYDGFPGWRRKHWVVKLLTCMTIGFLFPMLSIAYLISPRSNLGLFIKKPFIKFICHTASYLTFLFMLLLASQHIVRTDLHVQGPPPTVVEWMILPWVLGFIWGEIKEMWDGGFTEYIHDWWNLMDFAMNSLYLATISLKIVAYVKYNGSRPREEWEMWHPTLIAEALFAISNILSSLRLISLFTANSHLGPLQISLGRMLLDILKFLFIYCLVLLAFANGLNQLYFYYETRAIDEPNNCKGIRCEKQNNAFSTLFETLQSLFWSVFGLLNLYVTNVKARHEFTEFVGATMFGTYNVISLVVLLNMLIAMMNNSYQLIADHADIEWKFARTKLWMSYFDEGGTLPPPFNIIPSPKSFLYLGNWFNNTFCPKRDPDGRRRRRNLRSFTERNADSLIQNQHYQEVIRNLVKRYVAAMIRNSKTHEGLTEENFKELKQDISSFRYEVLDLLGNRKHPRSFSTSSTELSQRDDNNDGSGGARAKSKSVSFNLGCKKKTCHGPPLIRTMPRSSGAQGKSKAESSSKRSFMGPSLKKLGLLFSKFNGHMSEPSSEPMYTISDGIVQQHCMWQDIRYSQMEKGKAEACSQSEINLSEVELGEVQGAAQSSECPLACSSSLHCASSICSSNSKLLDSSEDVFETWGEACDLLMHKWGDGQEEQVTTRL
# [14] = Drug concentration in C57BL/6 mouse plasma at 1 mg/kg, iv after 2 hrs by liquid chromatography-tandem mass spectrometry; format: ADME, organism-based; settings: in vivo
# [15] = Protein binding in C57BL/6 mouse plasma assessed as unbound fraction by liquid chromatography-tandem mass spectrometry; format: ADME, cell-free
# [16] = Drug concentration in C57BL/6 mouse brain at 1 mg/kg, iv after 2 hrs by liquid chromatography-tandem mass spectrometry; format: ADME, organism-based; settings: read-out: Drug uptake
smiles,measurement,setting,value
CCOC(=O)N1CCC(C)(c2cc(O)n3nc(C)c(-c4ccc(C(F)(F)F)cc4)c3n2)CC1,inhibition in vivo at 200 mg/kg,AGS [1],61.5%
same,IC50,MKN-45,18500 nM
same,IC50,AGS [2],17100 nM
same,inhibition in vivo at 100 mg/kg,AGS [3],38.5%
same,IC50,TRPC6 [4],1000 nM
Cn1c(=O)n(CCCO)c(=O)c2c1nc(Oc1cccc(OC(F)(F)F)c1)n2Cc1ccc(Cl)cc1 [ZERENCOTREP],IC50,[5],0.34 nM
same,IC50,TRPC1/TRPC5,0.19 nM
same,IC50,[6],0.012 nM
same,IC50,[7],0.03 nM
same,IC50,TRPC4/TRPC1,0.033 nM
C=C[C@](C)(O)CC[C@H]1C(=C)C[C@H](O)[C@H]2C(C)(C)CCC[C@]12C,IC50,[8],1570 nM
CCOC(=O)c1cnn(-c2ccc(NC(=O)C(Cl)=C(Cl)Cl)cc2)c1C(F)(F)F,IC50,ORAI1/STIM1,540 nM
same,IC50,[9],540 nM
same,IC50,[10],50 nM
same,IC50,[11],700 nM
CCOC(=O)N1CCC(c2cc(O)n3nc(C)c(-c4ccc(F)cc4)c3n2)CC1,EC50,TRPC6 [12],4700 nM
Cc1nnsc1C(=O)Nc1ccc(-n2nc(C(F)(F)F)cc2C(F)(F)F)cc1,IC50,ORAI1/STIM1,590 nM
same,IC50,[9],4210 nM
same,IC50,[13],300 nM
Cn1c(=O)n(CCCO)c(=O)c2c1nc(Oc1cccc(Cl)c1)n2Cc1ccc(Cl)cc1,Cp,[14],299 nmol/kg
same,Fu,[15],0.4%
same,concentration at 2 h,[16],339 nM
